According to patent publication US6528464B1, “Composition and method for inhibiting uptake of biguanide antimicrobials by hydrogels” (Bausch & Lomb Incorporated, priority 2001, dated 2003):

Test: Uptake (sorption) of Alexidine by SureVue hydrogel contact lenses after overnight soak
Type: physicochemical
Description: The following examples evaluate whether the addition of cyclodextrin reduced the sorption of the biguanide Alexidine on SureVue® brand hydrogel contact lenses (commercially available from Johnson & Johnson Vision Care Incorporated of Jacksonville, Fla.).
5. 3-mL of each test solution, as well as the control solution, were placed into the lens cases for a total of 5 samples per solution.
6. SureVue® lenses were placed into each lens well aseptically.
7. Each lens was “dipped” into double-distilled water for approximately 2 seconds prior to installation into the lens cases.
8. Lenses were allowed to soak for approximately 18 hours (overnight).
9. 1-mL of solution from each of the lens wells was removed, analyzed and returned to the lens cases.

| SMILES | Uptake of Alexidine by SureVue ® Lenses (0.1% Beta-Cyclodextrin) (0.1% Beta-Cyclodextrin, soak approximately 18 hours) | Uptake of Alexidine by SureVue ® Lenses (0.3% Beta-Cyclodextrin) (0.3% Beta-Cyclodextrin, soak approximately 18 hours) | Uptake of Alexidine By SureVue ® Lenses (no Beta-Cyclodextrin (control solution), soak approximately 18 hours) | Inhibition of uptake of Alexidine by SureVue ® Lenses (0.1% Beta-Cyclodextrin) | Inhibition of uptake of Alexidine by SureVue ® Lenses (0.3% Beta-Cyclodextrin) |
| --- | --- | --- | --- | --- | --- |
| CCCCC(CC)CNC(=N)NC(=N)NCCCCCCNC(=N)NC(=N)NCC(CC)CCCC (centres unmarked) [Alexidine] | 62.10 ppm | 31.04 ppm | 75.26 ppm | – | – |
| OC[C@H]1O[C@@H]2O[C@H]3[C@H](O)[C@@H](O)[C@@H](O[C@H]4[C@H](O)[C@@H](O)[C@@H](O[C@H]5[C@H](O)[C@@H](O)[C@@H](O[C@H]6[C@H](O)[C@@H](O)[C@@H](O[C@H]7[C@H](O)[C@@H](O)[C@@H](O[C@H]8[C@H](O)[C@@H](O)[C@@H](O[C@H]1[C@H](O)[C@H]2O)O[C@@H]8CO)O[C@@H]7CO)O[C@@H]6CO)O[C@@H]5CO)O[C@@H]4CO)O[C@@H]3CO [Beta-Cyclodextrin] | – | – | – | 17.50% Inhibition | 58.75% Inbibition |
